Test results: patent US7253286B2, “Nitrogen-containing aromatic derivatives” (Eisai Co., Ltd, priority 2000, dated 2007)

Test system: Human Umbilical Vein Endothelial Cells (HUVECs)
Assay: Inhibition against sandwich tube formation by vascular endothelial cells in response to stimulation by VEGF
Type: cell-based
Conditions: HUVEC in collagen gel sandwich, stimulation by VEGF (25 ng/ml VEGF and 10 ng/ml EGF), 4th day, total tube length, read-out: IC50 (concentration required for 50% inhibition of tube formation)
Method: Inhibition Against Sandwich Tube Formation by Vascular Endothelial Cells in Response to Stimulation by Angiogenic Factor
Human Umbilical Vein Endothelial Cells (HUVECS) were isolated by the same method as in Pharmacological Test Example 1, and were cultured in a 5% CO2 incubator (37° C.) using EGM-2 medium (purchased from Clonetics Corp.) until the cells reached confluency.
An ice-cooled mixture of collagen: 5× RPMI 1640: reconstitution buffer (all purchased from Nitta Gelatin, Inc.) at 7:2:1 was dispensed at 0.4 ml into each well of a 24-well plate, and then stationed for 40 minutes in a 5% CO2 incubator (37° C.) for gelling. The HUVECs were recovered using trypsin-EDTA and then suspended in human endothelial serum free medium (SFM, purchased from GIBCO BRL) containing added angiogenic factors [20 ng/ml FGF2 (purchased from GIBCO BRL) and 10 ng/ml EGF (purchased from GIBCO BRL), or 25 ng/ml VEGF (purchased from Wako Pure Chemical Industries Co., Ltd.) and 10 ng/ml EGF, or 30 ng/ml HGF (purchased from R&D Co.) and 10 ng/ml EGF], and the cell suspension was added at 0.4 ml to each well (with the cell counts differing slightly according to the HUVEC lot), and cultured overnight in a 5% CO2 incubator (37° C.). On the following day, the medium on the upper layer was aspirated off, and then 0.4 ml of an ice-cooled mixture of collagen: 5× RPMI 1640: reconstitution buffer (all purchased from Nitta Gelatin, Inc.) at 7:2:1 was superposed into each well prior to stationing for 4 hours in a 5% CO2 incubator (37° C.) for gelling. After adding 1.5 ml of an SFM solution containing each of the aforementioned angiogenic factors and a diluted test substance onto the upper layer, culturing was performed in a 5% CO2 incubator (37° C.). Upon aspirating off the culture supernatant in each well on the 4th day after addition of the test substance, 0.4 ml of a 3.3 mg/ml MTT solution dissolved in PBS (purchased from Sigma Corp.) was added to each well and culturing was performed for approximately 2 hours in a 5% CO2 incubator (37° C.). The tubes formed in the collagen gel of each well were stained by the MTT, the tube images were loaded into a computer (Macintosh), and the total length of the tubes was determined by image analysis software “MacScope” (purchased from Mitani Corp.). The ratio of the total length of the tubes formed in the well containing the test substance with respect to the total length of the tubes formed in the well containing no test substance was expressed as a percentage, and the concentration of each test substance required for 50% inhibition of tube formation (IC50) was determined from the ratio value.

For `N#Cc1cc2c(Oc3ccc(NC(=O)Nc4ccc(F)cc4)c(F)c3)ccnc2cc1OCC(O)CN1CCOCC1` (centres unmarked) [Example 494, N-{4-[6-Cyano-7-(2-hydroxy-(3-morpholin-4-yl)propoxy)quinolin-4-yloxy]-2-fluorophenyl}-N′-(4-fluorophenyl)urea], the IC50 was 9.3 nM.

Work on `CCNC(=O)n1ccc2cc(Oc3ccnc4cc(OC)c(C(=O)NCCF)cc34)ccc21` [Example 518] yielded an IC50 of 1.3 nM.

For `COc1cc2nccc(Oc3ccc(NC(=O)NC4CC4)c(C)c3C)c2cc1C(N)=O` [Example 490, N-[4-(6-Carbamoyl-7-methoxy-4-quinolyl)oxy-2,3-dimethylphenyl]-N′-cyclopropylurea], the IC50 was 26 nM.

`COCCOc1cc2nccc(Oc3ccc(NC(=O)NC4CC4)cc3)c2cc1C#N` [Example 23, N-(4-(6-cyano-7-(2-methoxyethoxy)-4-quinolyl)oxyphenyl)-N′-cyclopropylurea] gave an IC50 of 100 nM.

Work on `CCN(CC)C[C@@H](O)COc1cc2nccc(Oc3ccc(NC(=O)Nc4ccc(F)cc4)cc3)c2cc1C#N` [Example 455, N-(4-((6-Cyano-7-(((2R)-3-(diethylamino)-2-hydroxypropyl)oxy)-4-quinolyl)oxy)phenyl)-N′-(4-fluorophenyl)urea] yielded an IC50 of 7.8 nM.

`CN1CCC(COc2cc3nccc(Oc4ccc(NC(=O)Nc5nccs5)c(F)c4)c3cc2C#N)CC1` [Example 504, N-{4-[6-Cyano-7-(1-methylpiperidin-4-ylmethoxy)quinolin-4-yloxy]-2-fluorophenyl}-N′-(2-thiazolyl)urea] was tested, and the IC50 was 4.6 nM.

`N#Cc1cc2c(Oc3ccc(NC(=O)Nc4ccc(F)cc4)c(F)c3)ccnc2cc1OC[C@H](O)CN1CCCCC1` [Example 497, N-(4-{6-Cyano-7-[(2R)-2-hydroxy-3-(piperidin-1-yl)propoxy]quinolin-4-yloxy}-2-fluorophenyl)-N′-(4-fluorophenyl)urea] was tested, and the IC50 was 4.6 nM.

In the case of `CCN(CC)CCCNC(=O)n1ccc2cc(Oc3ccnc4cc(OC)c(C(N)=O)cc34)ccc21` [Example 327, 6-Carbamoyl-4-[1-(3-diethylaminopropylcarbamoyl)1H-indol-5-yloxy]-7-methoxyquinoline], the IC50 is reported as 56 nM.

In the case of `CCN(CC)CCCOc1cc2nccc(Oc3ccc(NC(=O)NC4CC4)c(Cl)c3)c2cc1C#N` [Example 419, N-(2-Chloro-4-((6-cyano-7-(3-(diethylamino)propoxy)-4-quinolyl)oxy)phenyl)-N′-cyclopropylurea], the IC50 is reported as 10 nM.

`CONC(=O)c1cc2c(Oc3ccc4c(ccn4C(=O)NC4CC4)c3)ccnc2cc1OC` [Example 521, 6-Methoxycarbamoyl-7-methoxy-4-((1-cyclopropylcarbamoyl)indol-5-yloxy)quinoline] was tested, and the IC50 was 0.5 nM.

`O=C(Nc1cc(Oc2ccc3c(ccn3C(=O)Nc3ccccc3)c2)ccn1)C1CCN(CC2CC2)CC1` [Example 198, N1-Phenyl-5-{[2-({[(1-cyclopropylmethyl)-4-piperidyl]carbonyl}amino)-4-pyridyl]oxy}-1H-1-indolecarboxamide] was tested, and the IC50 was 1.5 nM.

`COc1cc2nccc(Oc3ccc(NC(=O)NC4CC4)c(Cl)c3)c2cc1C(=O)Nc1ncc[nH]1` [Example 405, N6-(1H-2-Imidazolyl)-4-(3-chloro-4-(((cyclopropylamino)carbonyl)amino)phenoxy)-7-methoxy-6-quinolinecarboxamide] gave an IC50 of 28 nM.

For `COc1cc2nccc(Oc3ccc(NC(=O)NC4CC4)c(Cl)c3)c2cc1C(=O)NCC1CC1` [Example 446, N6-Cyclopropylmethyl-4-(3-chloro-4-(((cyclopropylamino)carbonyl)amino)phenoxy)-7-methoxy-6-quinolinecarboxamide], the IC50 was 4 nM.

For `COCCNC(=O)c1cc2c(Oc3ccc(N(C)C(=O)Nc4ccc(F)cc4)cc3)ccnc2cc1OC` [Example 436, N6-(2-Methoxyethyl)-4-(4-(((4-fluoroanilino)carbonyl)(methyl)amino)phenoxy)-7-methoxy-6-quinolinecarboxamide], the IC50 was 22 nM.

Work on `O=C(Nc1cc(Oc2ccc3c(ccn3C(=O)NCCF)c2)ccn1)C1CC1` [Example 215, N1-(2-Fluoroethyl)-5-({2-[(cyclopropylcarbonyl)amino]-4-pyridyl}oxy)-1H-1-indolecarboxyamide] yielded an IC50 of 22 nM.

With `N#Cc1cc2c(Oc3ccc(NC(=O)Nc4ccc(F)cc4)c(F)c3)ccnc2cc1OCCCC(=O)NC1CC1` [Example 137, N-(4-(6-Cyano-7-(3-((cyclopropylamino)carbonyl)propoxy)-4-quinolyl)oxy-2-fluorophenyl)-N′-(4-fluorophenyl)urea] the IC50 was 10 nM.

Work on `N#Cc1cc2c(Oc3ccc(NC(=O)Nc4ccc(F)cc4)cc3)ccnc2cc1OC[C@H](O)CN1CCCC1` [Example 454, N-(4-((6-Cyano-7-(((2R)-2-hydroxy-3-(1-pyrrolidino)propyl)oxy)-4-quinolyl)oxy)phenyl)-N′-(4-fluorophenyl)urea] yielded an IC50 of 3.7 nM.

`N#Cc1cc2c(Oc3ccc(NC(=O)Nc4ccc(F)cc4)c(F)c3)ccnc2cc1OCC(O)CN1CCCC1` (centres unmarked) [Example 492, N-{4-[6-Cyano-7-(2-hydroxy-3-(pyrrolidin-1-yl)propoxy)quinolin-4-yloxy]-2-fluorophenyl}-N′-(4-fluorophenyl)urea] was tested, and the IC50 was 7.2 nM.

With `COC(=O)c1cc2c(Oc3ccc(N(C)C(=O)Nc4ccc(F)cc4)cc3)ccnc2cc1OC` [Example 433, Methyl 4-(4-(((4-fluoroanilino)carbonyl)(methyl)amino)phenoxy)-7-methoxy-6-quinoline carboxylate] the IC50 was 5.6 nM.

`O=C(C1CC1)N(C(=O)C1CC1)c1cc(Oc2ccc3c(ccn3C(=O)NC3CC3)c2)ccn1` [Example 211, N1-Cyclopropyl-5-({2-[di(cyclopropylcarbonyl)amino]-4-pyridyl}oxy)-1H-1-indolecarboxamide] was tested, and the IC50 was 0.3 nM.

`CCN(CC)CC(O)COc1cc2nccc(Oc3ccc(NC(=O)Nc4ccc(F)cc4)c(F)c3)c2cc1C#N` (centres unmarked) [Example 493, N-{4-[6-Cyano-7-(3-diethylamino-2-hydroxypropoxy)quinolin-4-yloxy]-2-fluorophenyl}-N′-(4-fluorophenyl)urea] showed an IC50 of 9 nM.

Molecule `COc1cc2nccc(Oc3ccc4c(ccn4C(=O)NCCCCl)c3)c2cc1C(N)=O` [Example 325, 6-Carbamoyl-4-[1-(3-chloropropylcarbamoyl)1H-indol-5-yloxy]-7-methoxyquinoline] has an IC50 of 1 nM.

In the case of `C#CCNC(=O)c1cc2c(Oc3ccc(NC(=O)NC4CC4)c(Cl)c3)ccnc2cc1OC` [Example 445, N6-Propargyl-4-(3-chloro-4-(((cyclopropylamino)carbonyl)amino)phenoxy)-7-methoxy-6-quinolinecarboxamide], the IC50 is reported as 6.2 nM.

`COCCOc1cc2nccc(Sc3ccc(NC(=O)Nc4ccccc4F)s3)c2cc1C#N` [Example 256, 1-{5-[6-Cyano-7-(2-methoxyethoxy)quinolin-4-ylsulfanyl]thiophen-2-yl}-3-(2-fluorophenyl)urea] showed an IC50 of 36 nM.

Work on `CN1CCC(CC(=O)Nc2cc(Oc3ccc4c(ccn4C(=O)Nc4ccccc4)c3)ccn2)CC1` [Example 204, N1-Phenyl-5-[(2-{[2-(1-methyl-4-piperidyl)acetyl]amino}-4-pyridyl)oxy]-1H-1-indolecarboxamide] yielded an IC50 of 0.9 nM.

`COc1cc2nccc(Oc3ccc4c(ccn4C(=O)NC(C)C)c3)c2cc1C(N)=O` [Example 320, 6-Carbamoyl-7-methoxy-4-[1-(1-methyl)ethylcarbamoyl-1H-indol-5-yloxy]quinoline] showed an IC50 of 2.5 nM.

With `CCNC(=O)n1ccc2cc(Oc3ccnc4cc(OCCCN5CCCC5)c(C#N)cc34)ccc21` [Example 299, 5-[6-Cyano-7-(3-(pyrrolidin-1-yl)propoxy)quinolin-4-yloxy]indole-1-carboxylic acid ethylamide] the IC50 was 1 nM.

`CCN(CC)CCCOc1cc2nccc(Oc3ccc4[nH]ccc4c3)c2cc1C#N` [Example 296, 7-(3-Diethylaminopropoxy)-4-(1H-indol-5-yloxy)quinoline-6-carbonitrile] showed an IC50 of 34 nM.

`CN1CCCC(COc2cc3nccc(Oc4ccc(NC(=O)Nc5nccs5)c(F)c4)c3cc2C#N)C1` (centres unmarked) [Example 505, N-{4-[6-Cyano-7-(1-methylpiperidin-3-ylmethoxy)quinolin-4-yloxy]-2-fluorophenyl}-N′-(2-thiazolyl)urea] was tested, and the IC50 was 8.9 nM.
